What is called inhibition is the change of the read-out against control, counted positive when it falls.

We go through four compounds from patent US9394290B2, “Selective CYP11B1 inhibitors for the treatment of cortisol dependent diseases” (UNIVERSITAET DES SAARLANDES CAMPUS SAARBRUECKEN, priority 2010, dated 2016).

The target in one experiment is human CYP11B2 (Homo sapiens (Human), UniProt P19099). The experiment can be described thus: Cellular assay for CYP11B2 inhibition (V79MZh11B2 hamster fibroblasts, substrate 11-deoxycorticosterone). Particulars: read-out: IC50 value CYP11B2, Hamster fibroblasts expressing human CYP11B2, 100 nM, mean of at least three experiments, n.i. = no inhibition at an inhibitor concentration of 500 nM.

The target of a further experiment is human CYP17 (Homo sapiens (Human), UniProt P05093). The experiment can be described thus: CYP17 inhibition assay (membrane fraction of E. coli expressing human CYP17, substrate progesterone). Format: biochemical. The conditions noted are these: 25 μM, inhibitor concentration 2.0 μM, read-out: inhibition (%) CYP 17. As for the experimental part:
Recombinant E. coli pJL17/OR coexpressing human CYP17 and rat NADPH-P450-reductase were grown and stored as described by Ehmer et al. (J. Steroid Biochem. Mol. Biol., 2000, 75, 57-63)
For isolation of membrane fractions, 5 ml of bacterial suspension with an OD578 of 50 were washed using phosphate buffer (0.05 M, pH 7.4, 1 mM MgCl2, 0.1 mM EDTA and 0.1 mM dithiothreitol). Bacteria were harvested by centrifugation (2000×g) and the pellet was resuspended in 10 ml ice-cold TES buffer (0.1 M tris-acetate, pH 7.8, 0.5 mM EDTA, 0.5 M sucrose). Lysozyme was added with 10 ml of ice-cold water resulting in a concentration of 0.2 mg/ml followed by incubation for 30 min on ice with continuous shaking. Spheroplasts were harvested by centrifugation (12000×g, 10 min), and resuspended in 4 ml of ice-cold phosphate buffer (the same as described above plus 0.5 mM phenylmethylsulfonylfluoride (PMSF)).
After that spheroplasts were sonicated on ice (pulse 20 s on, 30 s off, five times), using a sonicator Sonopuls HD60 (Bandelin, Berlin, Germany) at maximum power. Unbroken cells and debris were pelleted at 3000×g for 7 min, and the supernatant was centrifuged at 50000×g for 20 min at 4° C. The membrane pellet was resuspended in 2 ml of phosphate buffer (the same as described above) with 20% glycerol using an ultra-turrax T25 (IKA-Labortechnik, Staufen, Germany). Protein concentration was determined by the method of Lowry.
The assay was performed as follows: a solution of 6.25 nmol progesterone (in 5 μl methanol) in 140 μl phosphate buffer (0.05 M, pH 7.4, 1 mM MgCl2, 0.1 mM EDTA and 0.1 mM dithiothreitol), 50 μl NADPH generating system (in phosphate buffer with 10 mM NADP, 100 mM glucose-6-phosphate and 2.5 units of glucose-6-phosphate-dehydrogenase) and inhibitor (in 5 μl DMSO) was pre-incubated at 37° C. for 5 min. Control cups were supplemented with 5 μl DMSO without inhibitor. The reaction was started by adding 50 μl of a 1:5 diluted membrane suspension in phosphate buffer (0.8-1.0 mg protein per ml). The maximum DMSO concentration in each sample was 2%. After mixing, incubation was performed for 30 min at 37° C. Subsequently the reaction was stopped with 50 μl 1 N HCl.
Extraction of the steroids was performed by addition of 1.0 ml ethyl acetate and vigorous shaking for 1 min. After a centrifugation step (5 min, 2500×g) the organic phase (0.9 ml) was transferred into a fresh cup containing 0.25 ml of incubation buffer and 50 μl 1 N HCl and mixed again. After centrifugation, 0.8 ml ethyl acetate solution was evaporated to dryness in a fresh cup. After that the steroids were redissolved in solvent for HPLC analysis (Hutschenreuter et. al. J. Enz. Inhib. Med. Chem. 2004, 19, 17-32).
The above experiment was conducted at least three times and a mean value for the CYP17 inhibition calculated.

The target of the next experiment is human CYP11B1 (Homo sapiens (Human), UniProt P15538). The experiment can be described thus: Cellular assay for CYP11B1 inhibition (V79MZh11B1 hamster fibroblasts, substrate 11-deoxycorticosterone). The conditions noted are these: for sf: selectivity factor: IC50 (CYP11B2)/IC50 (CYP11B1): ratio IC50 (CYP11B2)/IC50 (CYP11B1); for IC50: read-out: IC50 value CYP11B1, Hamster fibroblasts expressing human CYP11B1, substrate 11-deoxycorticosterone, 100 nM, mean of at least three experiments.

The target of the next experiment is Human placental CYP19 (Homo sapiens (Human), UniProt P11511). Briefly: CYP19 (aromatase) assay, human placental microsomes, 3H2O release. Format: biochemical. The conditions noted are these: substrate androstenedione, 500 nM, inhibitor concentration 500 nM, read-out: inhibition (%) CYP 19. As for the experimental part:
The enzyme was obtained from the microsomal fraction of freshly delivered human term placental tissue according to the procedure of Thompson and Siiteri (Thompson, E. A.; Siiteri, P. K. J. Biol. Chem. 1974, 249, 5364).
The isolated microsomes were suspended in a minimum volume of phosphate buffer (0.05 M, pH 7.4, 20% glycerol). Additionally, DTT (dithiothreitol, 10 mM) and EDTA (1 mM) were added to protect the enzyme from degradation. The enzyme preparation was stored at −70° C.
The assay was performed monitoring enzyme activity by measuring the ^3H2O formed from [1β-^3H]androstenedione during aromatization (Hartmann et al. J. Med. Chem. 1986, 29, 1362-1369). […] The test compounds were dissolved in DMSO and diluted with buffer. The final DMSO concentration in the control and inhibitor incubation was 2%. Each tube was pre-incubated for 5 min at 30° C. in a water bath. Microsomal protein was added to start the reaction (0.1 mg). The total volume for each incubation was 0.25 ml. The reaction was terminated by the addition of 200 μl of a cold 1 mM HgCl2 solution. After addition of 200 μl of an aqueous dextran-coated charcoal (DCC) suspension (2%), the vials were shaken for 20 min and centrifuged at 1500×g for 5 min to separate the charcoal-absorbed steroids. The supernatant was assayed for ^3H2O by counting in a scintillation mixture using a β-counter. The calculation of the IC50 values was performed by plotting the percent inhibition vs. the concentration of inhibitor on a semi-log plot.
The above experiment was conducted at least three times and a mean value for the CYP19 inhibition calculated.

Molecules are shown by their SMILES.

Chain of human CYP17 (P05093 whole entry): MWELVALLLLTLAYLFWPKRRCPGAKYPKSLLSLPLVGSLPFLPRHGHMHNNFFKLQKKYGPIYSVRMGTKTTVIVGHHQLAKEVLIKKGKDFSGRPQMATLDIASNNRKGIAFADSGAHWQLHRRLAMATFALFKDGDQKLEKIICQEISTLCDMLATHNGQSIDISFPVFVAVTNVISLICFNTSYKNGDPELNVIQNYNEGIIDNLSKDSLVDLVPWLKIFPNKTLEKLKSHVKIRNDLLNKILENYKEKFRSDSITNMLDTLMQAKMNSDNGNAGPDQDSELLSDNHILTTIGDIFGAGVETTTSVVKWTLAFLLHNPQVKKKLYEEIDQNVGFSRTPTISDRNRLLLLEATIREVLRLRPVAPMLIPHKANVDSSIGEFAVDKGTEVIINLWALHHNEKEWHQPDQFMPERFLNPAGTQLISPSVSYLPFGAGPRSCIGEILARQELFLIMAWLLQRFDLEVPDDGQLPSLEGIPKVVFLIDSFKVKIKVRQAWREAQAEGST
Chain of human CYP11B2 (P19099 25-503): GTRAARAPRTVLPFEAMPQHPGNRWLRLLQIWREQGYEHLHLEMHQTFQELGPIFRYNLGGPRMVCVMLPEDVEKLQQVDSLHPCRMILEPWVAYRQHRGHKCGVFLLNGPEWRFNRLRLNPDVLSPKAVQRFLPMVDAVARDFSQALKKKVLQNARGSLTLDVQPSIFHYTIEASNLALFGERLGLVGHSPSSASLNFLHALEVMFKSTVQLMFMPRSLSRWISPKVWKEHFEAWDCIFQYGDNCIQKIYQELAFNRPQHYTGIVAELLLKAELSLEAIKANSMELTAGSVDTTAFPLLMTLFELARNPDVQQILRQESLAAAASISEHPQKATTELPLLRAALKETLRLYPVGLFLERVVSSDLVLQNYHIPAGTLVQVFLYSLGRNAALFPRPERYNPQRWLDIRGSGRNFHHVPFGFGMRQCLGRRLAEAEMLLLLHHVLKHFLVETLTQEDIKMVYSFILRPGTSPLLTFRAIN
Chain of Human placental CYP19 (P11511 whole entry): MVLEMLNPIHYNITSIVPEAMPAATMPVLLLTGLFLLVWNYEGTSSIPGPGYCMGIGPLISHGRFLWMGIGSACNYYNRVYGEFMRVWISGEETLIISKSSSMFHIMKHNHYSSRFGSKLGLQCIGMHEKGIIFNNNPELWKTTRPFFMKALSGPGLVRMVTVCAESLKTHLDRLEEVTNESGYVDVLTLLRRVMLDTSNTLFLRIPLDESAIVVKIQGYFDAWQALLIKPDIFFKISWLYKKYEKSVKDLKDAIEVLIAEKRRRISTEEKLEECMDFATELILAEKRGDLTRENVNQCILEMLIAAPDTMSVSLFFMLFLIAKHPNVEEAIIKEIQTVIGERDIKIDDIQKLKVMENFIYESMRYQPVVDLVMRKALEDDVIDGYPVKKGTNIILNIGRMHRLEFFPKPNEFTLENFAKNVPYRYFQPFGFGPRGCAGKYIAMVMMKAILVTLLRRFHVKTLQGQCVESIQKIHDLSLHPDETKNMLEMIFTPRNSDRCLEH
Chain of human CYP11B1 (P15538 25-503): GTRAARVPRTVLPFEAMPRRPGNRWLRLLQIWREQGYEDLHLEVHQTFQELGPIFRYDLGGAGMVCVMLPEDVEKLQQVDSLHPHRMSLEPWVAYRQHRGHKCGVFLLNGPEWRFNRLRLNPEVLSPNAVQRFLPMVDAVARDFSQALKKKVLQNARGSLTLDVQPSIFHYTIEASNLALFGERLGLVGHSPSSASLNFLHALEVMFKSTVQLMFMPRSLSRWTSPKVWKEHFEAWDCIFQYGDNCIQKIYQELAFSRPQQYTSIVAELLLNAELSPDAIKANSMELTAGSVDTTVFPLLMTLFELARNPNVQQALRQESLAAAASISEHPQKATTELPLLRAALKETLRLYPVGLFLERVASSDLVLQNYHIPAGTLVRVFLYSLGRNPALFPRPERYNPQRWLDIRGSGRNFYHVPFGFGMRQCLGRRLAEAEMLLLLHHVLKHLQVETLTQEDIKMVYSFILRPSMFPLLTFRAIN

For `c1ccc2c(-c3ccc(Cn4ccnc4)cn3)csc2c1` [Compound 38, 2-Benzo[b]thiophen-3-yl-5-imidazol-1-ylmethyl-pyridine], at human CYP11B2, the IC50 is 1160 nM. Further, the inhibition at 2 µM at human CYP17 was determined as 4%. Besides, at human CYP11B1, the “sf: selectivity factor: IC50 (CYP11B2)/IC50 (CYP11B1)” value (from here on “sf: selectivity factor: IC50”) turned out to be 29 and the IC50 is 40 nM. Moreover, the inhibition at 0.5 µM at Human placental CYP19 stood at 0%.

For the compound `c1coc(-c2ccc(Cn3ccnc3)cn2)c1` [Compound 39, 2-Furan-2-yl-5-imidazol-1-ylmethyl-pyridine], the IC50 is 5160 nM on human CYP11B2 and 167 nM on human CYP11B1. Also, the inhibition at 2 µM at human CYP17 worked out at 1%. Moreover, on human CYP11B1, the “sf: selectivity factor: IC50” value is reported as 31. Also, on Human placental CYP19, the inhibition at 0.5 µM turned out to be 0%.

Take `c1cn(Cc2ccc(-c3ccoc3)nc2)cn1` [Compound 40, 2-Furan-3-yl-5-imidazol-1-ylmethyl-pyridine]: the IC50 at human CYP11B2 turned out to be 2830 nM; on human CYP11B1 it was 76 nM. The inhibition at 2 µM at human CYP17 was 8%. For the same compound, on human CYP11B1, the “sf: selectivity factor: IC50” value came out at 37. Moreover, the inhibition at 0.5 µM on Human placental CYP19 was 0%.

Take `c1coc(-c2cc(Cn3ccnc3)cnc2-c2ccco2)c1` [Compound 42, 2,3-Di-furan-2-yl-5-imidazol-1-ylmethyl-pyridine]: the IC50 at human CYP11B2 is 830 nM. The inhibition at 2 µM at human CYP17 turned out to be 6.7%. Besides, on human CYP11B1, the “sf: selectivity factor: IC50” value is 29 and the IC50 was found to be 29 nM. Besides, the inhibition at 0.5 µM on Human placental CYP19 was 2.2%.
